# Laboratory results as given in US12472168B2, “Ring-fused thiazolino 2-pyridones, methods for preparation thereof and their use in the treatment and/or prevention of a disease involving gram-positive bacteria” (Quretech Bio AB, priority 2017, dated 2025).
# Assays:
# MRSA [1] = experiment: Effect of combination with Oxacillin on MRSA, CFU counts; format: cell-based, Methicillin-resistant Staphylococcus aureus; settings: Oxacillin 9 μM and DMSO (no test compound), 37° C. 18 h
# Experimental: The mixture (200 μL) was incubated at 37° C. for 18 h. A control without the test compound was performed in the same way.
# MRSA [2] = experiment: Minimum Inhibitory Concentration (MIC) and Minimum Bactericidal Concentration (MBC) assays; format: cell-based, Methicillin-resistant Staphylococcus aureus; settings: Staphylococcus aureus, compound alone, no antibiotic; for MIC: 18 h, overnight (18 hrs), read-out: MIC
# Experimental: (§1) MIC was defined by the lowest concentration of the test compound that inhibits visible growth of pathogen of interest. The optical density of the pathogen of interest culture was measured by OD600.
# (§2) MBC was determined colony forming units (CFUs) enumeration by serially diluting and plating bacterial cultures on BHI plates.
# (§3) Thus, no antibiotic was used in Table 2.
# Staph. aureus = experiment: MIC and MBC assays; format: cell-based; settings: Staphylococcus aureus, compound alone, no antibiotic; for MIC: overnight (18 hrs)
# Experimental: (§4) […]. MIC was defined by the lowest concentration of the test compound that inhibits visible growth of pathogen of interest. The optical density of the pathogen of interest culture was measured by OD600.
# (§5) […]. MBC was determined colony forming units (CFUs) enumeration by serially diluting and plating bacterial cultures on BHI plates.
# (§6) . Thus, no antibiotic was used in Table 2.
# Staph. saphyticus = experiment: MIC and MBC assays; format: cell-based; settings: Staphylococcus, compound alone, no antibiotic; for MIC: overnight (18 hrs)
# Experimental: as §4, §5, §6
# Strep. pyogenes = experiment: MIC and MBC assays; format: cell-based; settings: Streptococcus pyogenes, compound alone, no antibiotic; for MIC: overnight (18 hrs)
# Experimental: as §4, §5, §6
# E. faecalis = experiment: MIC and MBC assays; format: cell-based; settings: Enterococcus faecalis, compound alone, no antibiotic; for MIC: overnight (18 hrs)
# Experimental: as §1, §2, §3
# C. diff = experiment: MIC and MBC assays; format: cell-based, Clostridium difficile; settings: Clostridioides difficile, compound alone, no antibiotic; for MIC: overnight (18 hrs)
# Experimental: as §4, §5, §6
# Streptococcus = experiment: MIC and MBC assays; format: cell-based; settings: compound alone, no antibiotic
# Experimental: as §1, §2, §3
# E. faecalis OG1RF = experiment: Stand alone activity in vivo, mouse model of catheter-associated urinary tract infection (CAUTI); design: species or system Enterococcus faecalis; settings: C57BL/6Ncr mice, 10 mg/kg intraperitoneally 24 hours post-infection, sacrificed 48 hours post-infection, compound alone
# Experimental: Mice used in this study were six-week-old female wild-type C57BL/6Ncr mice. Mice were anesthetized by inhalation of isoflurane and implanted with a 5-mm length of platinum-cured silicone catheter. Then, mice were infected immediately following catheter implantation with 50 μl of ˜2×10^7 CFU of E. faecalis OG1RF in PBS (1 mL) was introduced in the bladder lumen by transurethral inoculation. […] Mice were sacrificed at 48 hours post-infection by cervical dislocation after anaesthesia inhalation, and the bladders were aseptically harvested. Subsequently, the silicone implant was retrieved from the bladder. Catheters were placed in 1×PBS (1 mL), sonicated for 10 min, to detach E. faecalis and bladders were homogenized in 1×PBS (1 mL).
# Mice used in this study were six-week-old female wild-type C57BL/6Ncr mice. Mice were anesthetized by inhalation of isoflurane and implanted with a 5-mm length of platinum-cured silicone catheter.
# Mice were sacrificed at 48 hours post-infection by cervical dislocation after anaesthesia inhalation, and the bladders were aseptically harvested. Subsequently, the silicone implant was retrieved from the bladder. Catheters were placed in 1×PBS (1 mL), sonicated for 10 min, to detach E. faecalis and bladders were homogenized in 1×PBS (1 mL). For bacterial enumeration on catheters and bladder, samples were serially diluted and plated on BHI for CFU enumeration.
SMILES,CFUs/ml (MRSA [1]; MRSA OD 0.001) [CFUs/ml],CFUs/ml (MRSA [1]; MRSA OD 0.1) [CFUs/ml],CFUs/ml (MRSA [1]; MRSA OD 1) [CFUs/ml],MIC (MRSA [2]) [µM],MBC (MRSA [2]) [µM],MBC (Staph. aureus) [µM],MIC (Staph. aureus) [µM],MBC (Staph. saphyticus) [µM],MIC (Staph. saphyticus) [µM],MBC (Strep. pyogenes) [µM],MIC (Strep. pyogenes) [µM],MBC (E. faecalis) [µM],MIC (E. faecalis) [µM],MBC (C. diff) [µM],MIC (C. diff) [µM],MBC (Streptococcus) [µM],reduction of bacterial titers in the bladder (E. faecalis OG1RF),reduction of bacterial titers on the catheters (E. faecalis OG1RF),reduction of bacterial titers in the bladder (E. faecalis OG1RF; 10 mg/kg)
"Cc1onc(-c2ccccc2)c1C(=O)N[C@@H]1C(=O)N2[C@@H]1SC(C)(C)[C@@H]2C(=O)O [Oxacillin, oxacillin, reference compound]",600,1.6E+10,2.2E+09,–,–,–,–,–,–,–,–,–,–,–,–,–,–,–,–
"O=C(O)C1CSc2c(-c3cccc(C(F)(F)F)c3)c(Cc3cccc4ccccc34)cc(=O)n21 (stereo not drawn) [Example 38, 6-[(1-Naphthyl)methyl]-4-oxo-7-[m-(trifluoromethyl)phenyl]-1-thia-3a-aza-3-indancarboxylic acid]",–,–,–,200,250,250,200,50,250,50,50,250,200,200,200,–,–,–,–
"O=C(O)C1C(c2ccccc2)Sc2c(-c3ccc4c(c3)OCO4)c(COc3cccc4ccccc34)cc(=O)n21 (stereo not drawn) [Example 39, 6-[(1-Naphthyloxy)methyl]-4-oxo-2-phenyl-7-(1,3-Dioxa-5-indanyl)-1-thia-3a-aza-3-indancarboxylic acid]",–,–,–,50,50,200,50,25,> 500,25,12.5,900,400,100,100,–,–,–,–
"CCCCOc1ccc(-c2sc3c(C4CC4)c(Cc4cccc5ccccc45)cc(=O)n3c2C(=O)O)cc1 [Example 13, 8-(p-Butoxyphenyl)-5-cyclopropyl-4-[(1-naphthyl)methyl]-2-oxo-7-thia-1-azabicyclo[4.3.0]nona-3,5,8-triene-9-carboxylic acid]",–,–,–,31,25,–,–,–,–,–,–,–,300,–,–,3,–,–,–
"Cc1cccc(-c2sc3c(C4CC4)c(Cc4cccc5ccccc45)cc(=O)n3c2C(=O)O)c1 [Example 30, 5-Cyclopropyl-4-[(1-naphthyl)methyl]-2-oxo-8-(m-tolyl)-7-thia-1-azabicyclo[4.3.0]nona-3,5,8-triene-9-carboxylic acid]",–,–,–,25,50,50,50,12.5,100,12.5,25,100,50,50,50,19,about 1.5 log units,about 1 log units,–
"CCCOc1ccc(-c2sc3c(C4CC4)c(Cc4cccc5ccccc45)cc(=O)n3c2C(=O)O)cc1C [Example 2, 5-Cyclopropyl-4-[(1-naphthyl)methyl]-2-oxo-8-(4-propoxy-3-methyl-phenyl)-7-thia-1-azabicyclo[4.3.0]nona-3,5,8-triene-9-carboxylic acid]",–,–,–,27,≥ 50,–,–,–,–,–,–,–,250,–,–,5,–,–,–
"COc1c(Cc2cccc3ccccc23)cc(=O)n2c(C(=O)O)c(-c3ccc(OCCCC(C)C)c(C)c3)sc12 [Example 50, 1H-imidazol-1-ium 8-methoxy-2-(3-methyl-4((4-methylpentyl)oxy)phenyl)-7-(naphtalen-1-ylmethyl)-5-oxo-thiazolo[3,2-a]pyridine-3-carboxylate]",–,–,–,–,–,–,–,–,–,–,–,–,–,–,–,–,–,–,about 0.5 log units
"O=C(O)c1c(Cc2ccccc2)sc2c(C3CC3)c(Cc3cccc4ccccc34)cc(=O)n12 [Example 28, 8-Benzyl-5-cyclopropyl-4-[(1-naphthyl)methyl]-2-oxo-7-thia-1-azabicyclo[4.3.0]nona-3,5,8-triene-9-carboxylic acid]",–,–,–,25,50,50,25,25,100,25,12.5,100,25,50,50,–,about 0.5 log units,about 0.4 log units,–
"O=C(O)C1CSc2c(-c3cccc(C(F)(F)F)c3)c(Cc3c4ccccc4cc4ccccc34)cc(=O)n21 (stereo not drawn) [Example 37, 6-[(9-Anthryl)methyl]-4-oxo-7-[m-(trifluoromethyl)phenyl]-1-thia-3a-aza-3-indancarboxylic acid]",–,–,–,25,25,50,50,25,> 500,12.5,12.5,400,100,50,50,–,–,–,–
"COc1c(Cc2cccc3ccccc23)cc(=O)n2c(C(=O)O)c(-c3ccc(OCCCC(C)C)c(C)c3)sc12 [Example 23, 8-[4-(Isohexyloxy)-3-methyl-phenyl]-5-methoxy-4-[(1-naphthyl)methyl]-2-oxo-7-thia-1-azabicyclo[4.3.0]nona-3,5,8-triene-9-carboxylic acid]",–,–,–,45,–,–,–,–,–,–,–,–,> 100,–,–,–,about 1.5 log units,about 0.4 log units,–
"COc1ccc(-c2sc3c(C4CC4)c(Cc4cccc5ccccc45)cc(=O)n3c2C(=O)O)cc1C [Example 4, 5-Cyclopropyl-8-(4-methoxy-3-methyl-phenyl)-4-[(1-naphthyl)methyl]-2-oxo-7-thia-1-azabicyclo[4.3.0]nona-3,5,8-triene-9-carboxylic acid]",–,–,–,200,–,–,–,–,–,–,–,–,250,–,–,9,–,–,–
